In patent publication US20240315989A1 (priority 2021, published 2024):

What was measured:
σ1 site [1] = target: T1, σ1 site (Homo sapiens, UniProt Q99720); settings: read-out: Affinity for σ1 Site (Ki or KD values); cited from earlier work
σ1 site [2] = target: T1, σ1 site; settings: cited from earlier work
SARS-CoV-2 infection = test: Retrospective cohort (BJC Healthcare): antidepressant exposure and ED or hospital encounter within 30 days; assay type: in vivo, human; settings: for Unadjusted Odds Ratio, ED or hospital encounter within 30 days / Adjusted Odds Ratio, ED or hospital encounter within 30 days: vs No Antidepressant (Ref); for Unadjusted Odds Ratio, ED or hospital encounter within 30 days: logistic regression; for Adjusted Odds Ratio, ED or hospital encounter within 30 days: multivariable logistic regression, complete cases
[3] = share of exposed outpatients with an encounter after a positive SARS-CoV-2 test

T1 sequence (Q99720 whole entry): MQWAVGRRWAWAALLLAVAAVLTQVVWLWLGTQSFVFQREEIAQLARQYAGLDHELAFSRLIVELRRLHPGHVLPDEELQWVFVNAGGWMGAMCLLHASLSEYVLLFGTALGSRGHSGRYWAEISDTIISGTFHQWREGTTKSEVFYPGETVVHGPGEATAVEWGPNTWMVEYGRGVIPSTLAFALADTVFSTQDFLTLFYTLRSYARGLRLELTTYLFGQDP

Row | Molecule | Ki (σ1 site [1]) [nM] | Function on σ1 Site (σ1 site [2]) | also measured
1 | COC(=O)C1(c2ccc(C)cc2)CC1CN1CCC(O)(c2ccccc2)CC1 (single isomer, unassigned; (+)) [(+)-MR 200] | < 50 | Antagonist | 
2 | CC(C)=CCN1CCC2(C)c3cc(O)ccc3CC1C2C (single isomer, unassigned; (+)) [(+)-Pentazocine] |  | Agonist | 
3 | CC(C)=CCN1CCC2(C)c3cc(O)ccc3CC1C2C (single isomer, unassigned; (-)) [(−)-Pentazocine] |  | Agonist | 
4 | O=C(NC1CCN(Cc2ccccc2)CC1)c1ccc(I)cc1 [4-IBP] | < 50 | Agonist | 
5 | CCCN1CCC[C@H](c2cccc(O)c2)C1 [(+)-3-PPP] |  | Agonist | 
6 | NC12CC3CC(CC(C3)C1)C2 [Amantadine] |  | Agonist^? | 
7 | CN(C)CCN(C)CCc1ccc(Cl)c(Cl)c1 [BD 1047] |  | Antagonist | 
8 | CN1CCN(CCc2ccc(Cl)c(Cl)c2)CC1 [BD 1063] | < 50 | Antagonist | 
9 | OC(CCCN1CCN(c2ncc(F)cn2)CC1)c1ccc(F)cc1 (stereo not shown) [BMY 14802] |  | Antagonist | 
10 | CCN(CC)CCOCCOC(=O)C1(c2ccccc2)CCCC1 [Carbetapentane] | < 50 | Agonist | 
11 | C#CCN(C)CCCOc1ccc(Cl)cc1Cl [Clorgyline] | < 50 | Agonist^? | 
12 | COC(=O)[C@H]1[C@@H](OC(=O)c2ccccc2)C[C@@H]2CC[C@H]1N2C [Cocaine] | < 10000 |  | 
13 | C[C@]12CC[C@H](OS(=O)(=O)O)CC1=CC[C@@H]1[C@@H]2CC[C@]2(C)C(=O)CC[C@@H]12 [DHEAS] | < 10000 | Agonist | 
14 | CN(C)CC(c1ccc(O)cc1)C1(O)CCCCC1 (stereo not shown) [Desvenlafaxine] |  |  | ED or hospital encounter within 30 days, % (SARS-CoV-2 infection; [3]): 18.7%; Unadjusted Odds Ratio, ED or hospital encounter within 30 days (SARS-CoV-2 infection): 2.15; Adjusted Odds Ratio, ED or hospital encounter within 30 days (SARS-CoV-2 infection): 0.95
15 | Cc1ccc2c(c1)[C@]13CCCC[C@@H]1[C@H](C2)N(C)CC3 [Dimemorfan] | < 500 | Agonist | 
16 | COc1cc2c(cc1OC)C(=O)C(CC1CCN(Cc3ccccc3)CC1)C2 (stereo not shown) [Donepezil] | < 50 | Agonist | 
17 | CN(C)CCC=C1c2ccccc2COc2ccccc21 [Doxepin] |  |  | ED or hospital encounter within 30 days, % (SARS-CoV-2 infection; [3]): 27.5%; Unadjusted Odds Ratio, ED or hospital encounter within 30 days (SARS-CoV-2 infection): 3.55; Adjusted Odds Ratio, ED or hospital encounter within 30 days (SARS-CoV-2 infection): 1.10
18 | CNCC[C@H](Oc1cccc2ccccc12)c1cccs1 [Duloxetine] |  |  | ED or hospital encounter within 30 days, % (SARS-CoV-2 infection; [3]): 21.8%; Unadjusted Odds Ratio, ED or hospital encounter within 30 days (SARS-CoV-2 infection): 2.61; Adjusted Odds Ratio, ED or hospital encounter within 30 days (SARS-CoV-2 infection): 0.95
19 | O=C(CC1CCN(CC2CC2)CC1)c1ccc(F)cc1 [Dup 734] | < 50 |  | 
20 | Fc1ccc(C2=CCN(CCCCn3cncn3)CC2)cc1.O=C(O)CC(O)(CC(=O)O)C(=O)O [E-5842] | < 50 | Antagonist | 
21 | OC(CN1CCC(Cc2ccc(F)cc2)CC1)c1ccc(Cl)cc1 (stereo not shown) [Eliprodil (SL-82.0715), Eliprodil] | < 500 |  | 
22 | OC(CCCN1CCC(O)(c2ccc(Cl)cc2)CC1)c1ccc(F)cc1 (stereo not shown) [Haloperidol Metabolite II] |  | Irreversible | 
23 | OC1(c2ccc(Cl)cc2)CCNCC1 [Haloperidol Metabolite I] | < 500 | Antagonist | 
24 | CCC(C/C=C/c1ccccc1)(c1ccccc1)N(C)CC1CC1 (stereo not shown) [JO-1784 (Igmesine), Igmesine] | < 50 | Agonist | 
25 | CCN(CC)C(=O)[C@@]1(c2ccccc2)C[C@H]1CN [Levomilnacipran] |  |  | ED or hospital encounter within 30 days, % (SARS-CoV-2 infection; [3]): 20.0%
26 | CNC(C)Cc1ccc2c(c1)OCO2 (stereo not shown) [MDMA] | < 10000 |  | 

Row | Molecule | Ki (σ1 site [1]) [nM] | Function on σ1 Site (σ1 site [2]) | also measured
27 | COCCN1CCN(C[C@H]2CCN(c3ccc(Cl)cc3)C2=O)CC1.O=C(O)C(O)C(O)C(=O)O [MS-377] | < 50 | Antagonist | 
28 | CC12CC3CC(C)(C1)CC(N)(C3)C2 [Memantine] | < 10000 | Agonist^? | 
29 | CN[C@@H](C)Cc1ccccc1 [Metamphetamine] | < 10000 |  | 
30 | S=C=Nc1cccc(C2(N3CCCCC3)CCCCC2)c1 [Metaphit] | < 500 | Irreversible | 
31 | CN1CCN2c3ncccc3Cc3ccccc3C2C1 (stereo not shown) [Mirtazapine] |  |  | ED or hospital encounter within 30 days, % (SARS-CoV-2 infection; [3]): 27.9%
32 | CCCN(CCC)CCc1ccc(OC)c(OCCc2ccccc2)c1 [NE-100] |  | Antagonist | 
33 | CCc1nn(CCCN2CCN(c3cccc(Cl)c3)CC2)c(=O)n1CCOc1ccccc1 [Nefazodone] |  |  | ED or hospital encounter within 30 days, % (SARS-CoV-2 infection; [3]): 0.0%
34 | CNc1cc(OC)c(C(=O)NC2CCN(Cc3ccccc3)C2C)cc1Cl (stereo not shown) [Nemonapride] | < 50 |  | 
35 | CNCCC=C1c2ccccc2CCc2ccccc21 [Nortriptyline] |  |  | ED or hospital encounter within 30 days, % (SARS-CoV-2 infection; [3]): 24.3%; Unadjusted Odds Ratio, ED or hospital encounter within 30 days (SARS-CoV-2 infection): 3.02; Adjusted Odds Ratio, ED or hospital encounter within 30 days (SARS-CoV-2 infection): 1.08
36 | COc1cccc2c1CCC(=O)N2CCCN1CCN(c2cccc(Cl)c2)CC1 [OPC-14523] | < 50 | Agonist | 
37 | O=C(OCCN1CCOCC1)C1(c2ccccc2)CCCCC1 [PRE 084] |  | Agonist | 
38 | COc1ccc(N2C[C@H](CN3CCC(O)(c4ccc5c(c4)OCO5)CC3)OC2=O)cc1 [Panamesine (EMD 57445), Panamesine] | < 50 | Antagonist | 
39 | O=C1NC(=O)C(c2ccccc2)(c2ccccc2)N1 [Phenytoin (DPH), Phenytoin] |  | Allosteric | 
40 | CC(=O)[C@H]1CC[C@H]2[C@@H]3CCC4=CC(=O)CC[C@]4(C)[C@H]3CC[C@]12C [Progesterone] |  | Antagonist | 
41 | C[C@@H]1CN(CCCn2c3ccccc3c3ccccc32)C[C@H](C)N1 [Rimcazole (BW-234U), Rimcazole] |  | Antagonist | 
42 | Cc1cccc(/C=N/N2CCN(C(c3ccccc3)c3ccccc3)CC2)n1 [Ropizine] |  | Allosteric | 
43 | O=c1n(CCCN2CCN(c3cccc(Cl)c3)CC2)nc2ccccn12 [Trazodone] |  |  | ED or hospital encounter within 30 days, % (SARS-CoV-2 infection; [3]): 22.6%; Unadjusted Odds Ratio, ED or hospital encounter within 30 days (SARS-CoV-2 infection): 2.74; Adjusted Odds Ratio, ED or hospital encounter within 30 days (SARS-CoV-2 infection): 0.99
44 | N#Cc1ccc2[nH]cc(CCCCN3CCN(c4ccc5oc(C(N)=O)cc5c4)CC3)c2c1 [Vilazodone] |  |  | ED or hospital encounter within 30 days, % (SARS-CoV-2 infection; [3]): 29.4%; Unadjusted Odds Ratio, ED or hospital encounter within 30 days (SARS-CoV-2 infection): 3.91; Adjusted Odds Ratio, ED or hospital encounter within 30 days (SARS-CoV-2 infection): 1.36
45 | Cc1ccc(Sc2ccccc2N2CCNCC2)c(C)c1 [Vortioxetine] |  |  | ED or hospital encounter within 30 days, % (SARS-CoV-2 infection; [3]): 14.3%; Unadjusted Odds Ratio, ED or hospital encounter within 30 days (SARS-CoV-2 infection): 1.56; Adjusted Odds Ratio, ED or hospital encounter within 30 days (SARS-CoV-2 infection): 0.58
46 | CC(NC(C)(C)C)C(=O)c1cccc(Cl)c1 (stereo not shown) [bupropion] |  |  | ED or hospital encounters within 30 days, % (SARS-CoV-2 infection; <20 mg fluoxetine-equivalent daily): 13.9%; ED or hospital encounter within 30 days, % (SARS-CoV-2 infection; [3]): 14.3%; ED or hospital encounters within 30 days, % (SARS-CoV-2 infection; ≥20 mg fluoxetine-equivalent daily): 15.0%; ED or hospital encounters within 30 days, % (SARS-CoV-2 infection; ≥40 mg fluoxetine-equivalent daily): 20.0%
47 | CN(C)CCCC1(c2ccc(F)cc2)OCc2cc(C#N)ccc21 (stereo not shown) [citalopram] |  |  | ED or hospital encounter within 30 days, % (SARS-CoV-2 infection; [3]): 15.8%
48 | CN(C)CCCN1c2ccccc2CCc2ccc(Cl)cc21 [clomipramine] |  |  | ED or hospital encounter within 30 days, % (SARS-CoV-2 infection; in vivo): 18.2%
49 | CNCCCN1c2ccccc2CCc2ccccc21 [desipramine] |  |  | ED or hospital encounter within 30 days, % (SARS-CoV-2 infection; [3]): 10.0%; Unadjusted Odds Ratio, ED or hospital encounter within 30 days (SARS-CoV-2 infection): 1.04; Adjusted Odds Ratio, ED or hospital encounter within 30 days (SARS-CoV-2 infection): 0.24
50 | CN(C)CCCN1c2ccccc2CCc2ccccc21 [imipramine] | < 500 | Agonist | ED or hospital encounter within 30 days, % (SARS-CoV-2 infection; [3]): 23.5%
51 | COc1ccc(C(CN(C)C)C2(O)CCCCC2)cc1 (stereo not shown) [venlafaxine] |  |  | ED or hospital encounter within 30 days, % (SARS-CoV-2 infection; [3]): 17.1%; Unadjusted Odds Ratio, ED or hospital encounter within 30 days (SARS-CoV-2 infection): 1.94; Adjusted Odds Ratio, ED or hospital encounter within 30 days (SARS-CoV-2 infection): 0.78
52 | Pregnenolone sulfate |  | Agonist | 
